Experiment [1] concerns L1210 cells. Description: Growth inhibition of L1210 cells in suspension culture, 48 h count. The class given is cell-based. The note with it: Mus musculus. How it is done: Cells were diluted to 10^5 /ml and additions (diluted in medium and sterilised in Millipore filtration) made prior to starting each incubation. Cell counts were performed after 24 and 48 hours using an improved Neubauer haemocytometer.

Experiment [2] has as its target T1, TS (Mus musculus, UniProt P07607).
T1 construct: endogenous in cells
Description: Inhibition of TS purified >2,000 fold from L1210 cells by affinity chromatography. The experiment is classed as biochemical. The note with it: for Relative potency ([drawing 17], I50 relative to CB 3717): relative to CB 3717 control, higher = weaker; for IC50: second results table, TS purified >2,000 fold, read-out: TS I50.

Experiment [3] has as its system L1210 cells. Nature of the experiment: Reversal of toxicity to L1210 cells in culture by thymidine. The note with it: second results table; L1210. The experiment is classed as cell-based, mouse. As for the experimental part:
(§1) L1210 and L1210:R71 cells were grown in continuous suspension culture in RPMI 1640 medium containing 10% horse serum (Flow Laboratories, Irvine, Scotland; UK). Cells were diluted to 10^5 /ml and additions (diluted in medium and sterilised in Millipore filtration) made prior to starting each incubation. Cell counts were performed after 24 and 48 hours using an improved Neubauer haemocytometer.

Experiment [4] has as its target DIHYDROFOLATE REDUCTASE (DHFR). Description: Inhibition of dihydrofolate reductase (DHFR) purified by affinity chromatography. The experiment is classed as biochemical. The note with it: Table 1. The text has this:
(§2) The cytosol of log phase L1210 cells harvested from animals was partially purified for TS I50 and Ki determinations to remove from the preparation a phosphatase which degrades dUMP to deoxyuridine. (The I50 was defined as the inhibitor concentration necessary to reduce the reaction rate of TS by 50%). DHFR was purified by affinity chromatography and Ki determinations performed.

The target of experiment [5] is T2, THYMIDYLATE SYNTHETASE (TS) (Mus musculus, UniProt P07607).
T2 construct: The cytosol of log phase L1210 cells harvested from animals was partially purified for TS I50 and Ki determinations; endogenous in cells; host or cells: L1210 cells harvested from animals (cytosol, partially purified)
T2 sequence (P07607 whole entry): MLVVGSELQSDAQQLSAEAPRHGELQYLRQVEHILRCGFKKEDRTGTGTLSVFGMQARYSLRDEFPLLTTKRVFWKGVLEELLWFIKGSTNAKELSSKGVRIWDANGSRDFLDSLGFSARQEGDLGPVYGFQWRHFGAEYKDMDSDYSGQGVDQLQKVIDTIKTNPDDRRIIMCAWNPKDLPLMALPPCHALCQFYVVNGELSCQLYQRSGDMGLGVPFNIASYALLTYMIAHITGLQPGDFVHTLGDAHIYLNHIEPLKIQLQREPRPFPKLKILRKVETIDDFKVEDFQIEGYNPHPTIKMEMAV
Description: Inhibition of thymidylate synthetase (TS), partially purified L1210 cytosol. The experiment is classed as biochemical. The note with it: Table 1, inhibitor concentration reducing TS reaction rate by 50%, read-out: THYMIDYLATE SYNTHETASE I50.
Excerpt: as §2

Experiment [6] relates to L1210:R71 cells. Description: Growth inhibition of methotrexate-resistant L1210:R71 cells in suspension culture, 48 h count. The experiment is classed as cell-based, mouse. The note with it: Table 2; for IC50: Mus musculus, MTX-resistant, 48 hour count reduced to 50% of control, read-out: ID50 L1210:R71. As for the experimental part:
The compounds of Example 2 were evaluated in vitro as inhibitors as TS and cell growth and in vivo against the L1210 tumour. Since methotrexate (MTX) resistance is an important problem in cancer therapy, the compounds of the present invention were also investigated with this in mind.
as §1

Setting [7] is: L1210, 48 h, second results table, read-out: ID50 L1210 (Tissue culture).
Where [8] appears, read: L1210, Table 2, 48 hour count reduced to 50% of control, read-out: ID50 L1210.

Read-outs that look alike come from different tables or passages of the source. A value given as a limit tells only on which side of the number the result lay.

T1 sequence (P07607 whole entry): as above

For `Nc1nc(O)c2cc(CN(CCF)c3ccc(C(=O)N[C@@H](CCC(=O)O)C(=O)O)cc3)ccc2n1` [CB 3731, N-(4-(N-((2-amino-4-hydroxy-6-quinazolinyl)methyl)2-fluoroethylamino)benzoyl)-L-glutamic acid], the IC50 in experiment [1] (setting [7]) was 16 µM. Besides, in experiment [2], the “Relative potency ([drawing 17], I50 relative to CB 3717)” value (shortened to “Relative potency”) was 6.8 and the IC50 worked out at 0.095 µM.

Consider `C#CCN(Cc1ccc2nc(N)nc(O)c2c1)c1ccc(C(=O)N[C@@H](CCC(=O)OCC)C(=O)OCC)cc1` [CB 3721, diethyl N-(4-(N-((2-amino-4-hydroxy-6-quinazolinyl)methyl)prop-2-ynylamino)benzoyl)-L-glutamate], for which the IC50 in experiment [1] (setting [7]) stood at 52 µM. In experiment [2], the “Relative potency” value was greater than 62 and the IC50 is greater than 3 µM.

With `C#CCN(Cc1ccc2nc(N)[nH]c(=O)c2c1)c1ccc(C(=O)N[C@@H](CC(=O)OCC)C(=O)OCC)cc1` [CB 3748], in experiment [1] (setting [7]), the IC50 is 100 µM.

Consider `Nc1nc2ccc(CN(CC3CO3)c3ccc(C(=O)N[C@@H](CCC(=O)O)C(=O)O)cc3)cc2c(=O)[nH]1` (stereo partly drawn) [CB 3736], for which, in experiment [1] (setting [7]), the IC50 is greater than 300 µM. In experiment [2], the “Relative potency” value turned out to be 7.6 and the IC50 amounted to 0.31 µM.

Turning to `NC(=O)CN(Cc1ccc2nc(N)[nH]c(=O)c2c1)c1ccc(C(=O)N[C@@H](CCC(=O)O)C(=O)O)cc1` [CB 3734], the “Reversal by thymidine (in culture)” value in experiment [3] is given as “yes”. The IC50 in experiment [1] (setting [7]) was 87 µM; in experiment [2] it was greater than 3 µM. Besides, in experiment [2], the “Relative potency” value is reported as greater than 62.5.

For the compound `CCOC(=O)CC[C@H](NC(=O)c1ccc(N(CCBr)Cc2ccc3nc(N)[nH]c(=O)c3c2)cc1)C(=O)OCC` [CB 3746], the IC50 in experiment [1] (setting [7]) was greater than 100 µM.

Broadly, the Ki is a dissociation constant, usually derived from enzyme kinetics or from competition with a known ligand. Turning to `CCCN(Cc1ccc2nc(N)[nH]c(=O)c2c1)c1ccc(C(=O)N[C@@H](CCC(=O)O)C(=O)O)cc1` [Comparison, reference compound], in experiment [4], the inhibition constant (Ki) came to 0.02 µM. Besides, the IC50 in experiment [5] was found to be 0.17 µM; in experiment [6], 315 µM; in experiment [1] (setting [8]), 33 µM. The “CROSS RESISTANCE (ID50 L1210:R71/ID50 L1210)” value in experiment [6] turned out to be 10.

For `C#CCN(Cc1ccc2nc(N)[nH]c(=O)c2c1)c1ccc(C(=O)N[C@@H](CCC(=O)OCC)C(=O)OCC)c(Cl)c1` [CB 3750], the IC50 in experiment [1] (setting [7]) was 18 µM.

Turning to `Nc1nc2ccc(CN(CC(=O)O)c3ccc(C(=O)N[C@@H](CCC(=O)O)C(=O)O)cc3)cc2c(=O)[nH]1` [CB 3728], in experiment [3], the “Reversal by thymidine (in culture)” value was “yes”. In addition, the IC50 in experiment [1] (setting [7]) was found to be 27 µM; in experiment [2], 1.4 µM. In addition, in experiment [2], the “Relative potency” value is 100.

On to `CCOC(=O)CC[C@H](NC(=O)c1ccc(N(Cc2ccc3nc(N)[nH]c(=O)c3c2)CC(O)CBr)cc1)C(=O)OCC` (stereo partly drawn) [CB 3747], for which, in experiment [1] (setting [7]), the IC50 is greater than 100 µM.

As to `C#CCN(Cc1ccc2nc(N)[nH]c(=O)c2c1)c1ccc(C(=O)N[C@@H](CC(=O)O)C(=O)O)cc1` [CB 3737], the IC50 in experiment [1] (setting [7]) is greater than 100 µM. In experiment [2], the “Relative potency” value was determined as 1.6 and the IC50 turned out to be 0.066 µM.

As to `Nc1nc2ccc(CN(CCBr)c3ccc(C(=O)N[C@@H](CCC(=O)O)C(=O)O)cc3)cc2c(=O)[nH]1` [CB 3735], the IC50 in experiment [1] (setting [7]) worked out at 52 µM; in experiment [2] it was 1.1 µM. For the same compound, the “Relative potency” value in experiment [2] is 23.

As to `Nc1nc(O)c2cc(CN(CC(=O)c3ccccc3)c3ccc(C(=O)N[C@@H](CCC(=O)O)C(=O)O)cc3)ccc2n1` [CB 3733, N-(4-(N-((2-amino-4-hydroxy-6-quinazolinyl)methyl)phenacylamino)benzoyl)-L-glutamic acid], in experiment [1] (setting [7]), the IC50 was found to be 100 µM. In experiment [2], the “Relative potency” value was found to be 40 and the IC50 amounted to 1.64 µM.

For `C#CCN(Cc1ccc2nc(N)[nH]c(=O)c2c1)c1ccc(C(=O)N[C@@H](CCC(=O)O)C(=O)O)c(Cl)c1` [CB 3739], the IC50 in experiment [1] (setting [7]) amounted to 17 µM.

In experiment [4], `C=CCN(Cc1ccc2nc(N)nc(O)c2c1)c1ccc(C(=O)N[C@@H](CCC(=O)O)C(=O)O)cc1` [CB 3716, N-(4-(N-((2-amino-4-hydroxy-6-quinazolinyl)methyl)prop-2-enylamino)benzoyl)-L-glutamic acid] returned a Ki of 0.027 µM. In addition, the IC50 in experiment [5] amounted to 0.069 µM; in experiment [6] it was 100 µM; in experiment [1] (setting [8]), 8.8 µM. The “CROSS RESISTANCE (ID50 L1210:R71/ID50 L1210)” value in experiment [6] is 11.

Take `CCOC(=O)CC[C@H](NC(=O)c1ccc(N(CC(=O)c2ccccc2)Cc2ccc3nc(N)nc(O)c3c2)cc1)C(=O)OCC` [CB 3744, diethyl N-(4-(N-((2-amino-4-hydroxy-6-quinazolinyl)methyl)phenacylamino)benzoyl)-L-glutamate]: in experiment [1] (setting [7]), the IC50 was greater than 100 µM.

Take `C#CCN(Cc1ccc2nc(N)[nH]c(=O)c2c1)c1ccc(C(=O)N[C@@H](CCC(=O)OCC)C(=O)OCC)c(C)c1` [CB 3749]: in experiment [1] (setting [7]), the IC50 came to 100 µM.

On to `Nc1nc(O)c2cc(CN(CCCO)c3ccc(C(=O)N[C@@H](CCC(=O)O)C(=O)O)cc3)ccc2n1` [CB 3729, N-(4-(N-((2-amino-4-hydroxy-6-quinazolinyl)methyl)-3-hydroxypropylamino)-benzoyl)-L-glutamic acid], for which the figures for the IC50 in experiment [1] (setting [7]) and in experiment [2] were 54 µM and 0.12 µM, respectively. Further, in experiment [2], the “Relative potency” value worked out at 8.6.

Consider `N#CCN(Cc1ccc2nc(N)[nH]c(=O)c2c1)c1ccc(C(=O)N[C@@H](CCC(=O)O)C(=O)O)cc1` [CB 3726], for which the IC50 in experiment [1] (setting [7]) worked out at 5.4 µM; in experiment [2], 0.094 µM. For the same compound, in experiment [2], the “Relative potency” value is 15.6.

For `C#CCN(Cc1ccc2nc(N)[nH]c(=O)c2c1)c1ccc(C(=O)N[C@@H](CCC(=O)O)C(=O)O)c(C)c1` [CB 3738], the IC50 in experiment [1] (setting [7]) was 24 µM. In addition, in experiment [2], the “Relative potency” value was 1.1 and the IC50 came to 0.047 µM.

Regarding `CCOC(=O)CC[C@H](NC(=O)c1ccc(N(CC(=O)OCC)Cc2ccc3nc(N)[nH]c(=O)c3c2)cc1)C(=O)OCC` [CB 3745], the IC50 in experiment [1] (setting [7]) was greater than 100 µM.

As for `Nc1nc(O)c2cc(CN(Cc3c[nH]c(=O)[nH]c3=O)c3ccc(C(=O)N[C@@H](CCC(=O)O)C(=O)O)cc3)ccc2n1` [CB 3743, N-(4-(N-(2-amino-4-hydroxy-6-quinazolinyl)methyl-N-(5-uracilyl)methyl-amino)benzoyl)-L-glutamic acid], in experiment [3], the “Reversal by thymidine (in culture)” value is listed as “yes”. Moreover, the IC50 in experiment [1] (setting [7]) was 4.7 µM; in experiment [2], greater than 1 µM. In addition, the “Relative potency” value in experiment [2] was greater than 22.

For the origin of these results see patent US4447608A, “Anti-cancer quinazoline derivatives” (priority 1979, dated 1984).
